Data reported in patent publication US11536729B2, “Method of identifying novel protein aggregation inhibitors based on chemical kinetics” (Cambridge Enterprise Limited, priority 2016, dated 2022).

Legend:
[1] = system: C. elegans CL2122 (control-worm); experiment: C. elegans motility assay, control-worm model; design: species or system Caenorhabditis elegans; settings: in vivo
Procedure: Standard conditions were used for Caenorhabditis elegans propagation at 20° C. (53). Briefly, animals were synchronized by hypochlorite bleaching, hatched overnight in M9 buffer, and subsequently cultured on nematode growth medium (NGM, USP agar) plates seeded with the E. coli strain OP50. Saturated cultures of OP50 were grown by inoculating 50 mL of LB medium with OP50 and incubating the culture for 16 h at 37° C. NGM plates were seeded with bacteria by adding 350 μl of saturated OP50 to each plate and leaving the plates at room temperature for 2-3 days. […]
All populations were cultured at 20° C. and developmentally synchronized from a 4 h egg-lay. At 64-72 h post egg-lay (time zero) individuals were shifted to 23° C. or 25° C., and body movement assessed over time as indicated. At different ages, animals were washed out of the plates with M9 and spread over an un-seeded 6 cm plate, after which their movements were recorded at 30 fps using a home-made microscopic setup, at 0.75× magnification, for 30 s or 1 min. 200 animals were counted per experiment unless stated otherwise. […]
Videos were elaborated using ImageJ (National Institutes of Health, Bethesda, Md., USA), and body bends were quantified using the wrMTrck plug-in (http://www.phage.dk/plugins/wrmtrck.html), developed by Jesper Søndergaard Pedersen.

Aβ42 = molecular target: T1, Aβ42 (Homo sapiens, UniProt P05067); experiment: ThT-based Aβ42 aggregation kinetics under quiescent (unseeded) conditions; format: biochemical
T1 construct: The recombinant Aβ (M1-42) peptide; made in house; host or cells: E. coli BL21 Gold (DE3)
Procedure: Solutions of monomeric peptides were prepared by dissolving the lyophilized Aβ42 peptide in 6 M GuHCl. Monomeric forms were purified from potential oligomeric species and salt using a Superdex 75 10/300 GL column (GE Healthcare) at a flowrate of 0.5 mL/min, and were eluted in 20 mM sodium phosphate buffer, pH 8 supplemented with 200 μM EDTA and 0.02% NaN3. The center of the peak was collected and the peptide concentration was determined from the absorbance of the integrated peak area using ε280=1400 l mol^−1 cm^−1. The obtained monomer was diluted with buffer to the desired concentration and supplemented with 20 μM Thioflavin T (ThT) from a 1 mM stock. All samples were prepared in low binding eppendorf tubes on ice using careful pipetting to avoid introduction of air bubbles. Each sample was then pipetted into multiple wells of a 96-well half-area, low-binding, clear bottom and PEG coating plate (Corning 3881), 80 μL per well.
We verified that the addition of 1% DMSO in the reaction mixture has no effect on Aβ42 aggregation.
Assays were initiated by placing the 96-well plate at 37° C. under quiescent conditions in a plate reader (Fluostar Omega, Fluostar Optima or Fluostar Galaxy, BMGLabtech, Offenburg, Germany). The ThT fluorescence was measured through the bottom of the plate with a 440 nm excitation filter and a 480 nm emission filter. The ThT fluorescence was followed for three repeats of each sample.
The time evolution of the total fibril mass concentration, M(t), is described by the following integrated rate law (30, 32)
[formula] where the kinetic parameters B±, C±, κ, κ∞ and ? are functions of the two ? combinations of the microscopic rate constants k+k2 and knk2, where kn, k+ and k2 are the primary nucleation, elongation and secondary nucleation rate constants, respectively.
The time evolution of the total fibril mass concentration, M(t), is described by the following integrated rate law
[formula] where the kinetic parameters B±, C±, κ, κ∞ and ? are functions of the two combinations of the microscopic rate constants k+k2 and knk2, where kn, k+ and k2 are the primary nucleation, elongation and secondary nucleation rate constants, respectively. Aβ42 alone in 1% DMSO was first modeled to obtain the k+k2 and knk2 combined microscopic rate constants.
With the introduction of different small molecules, the aggregation process can be inhibited by one or more individual microscopic reactions. Microscopic rate constants k+k2 and knk2 were obtained in the presence of the molecules, and compared to the initial values of Aβ42 alone. This comparison allows one to understand which rate was mainly perturbed, as well as the potency of the compounds (by relative changes of their microscopic rates) with respect to each other.

[2] = 2 μM Aβ42, 4-fold excess of compound

T1 sequence (P05067 671-713): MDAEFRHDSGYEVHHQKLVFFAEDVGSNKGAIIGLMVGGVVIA

## C=C(c1ccc(C(=O)O)cc1)c1cc2c(cc1C)C(C)(C)CCC2(C)C [bexarotene]
[1]
  effect in control-worm model: did not show any effects
Aβ42; [2]
  increase of time to half-completion compared to Aβ42 alone: factor of two
  time to half-completion of the aggregation reaction: 4.50 ± 0.06 h
Aβ42; 2 μM Aβ42, 10-fold excess
  time for which unseeded aggregation was completely inhibited: 15 h
Aβ42; 5 μM Aβ42, 5-25 μM bexarotene
  effect on secondary pathways (k2k+): no (or very little) detectable effect
  primary nucleation rate constant kn: specifically decreased
Aβ42; increasing concentrations of bexarotene
  effect on Aβ42 aggregation: progressive delay
